Where two headings read alike, the source gives them in different places. Bridge positions count the residues as written; N and C are the ends. Peptide text beside a SMILES is read from it.
Tests used:
β3-Tryptase = β3-Tryptase (Homo sapiens, UniProt P20231); assay: Kiapp determination with tryptase (Example 3); type: biochemical
Method: (§1) Tryptase (0.2 nM) was preincubated with McoTi-KVV (0-34 nM) at 37 degree C. for 60 min, and the reaction was initiated by the addition of substrate tos-Gly-Pro-Arg-AMC. The residual steady state velocities were measured over 10 min and are expressed in % of the activity measured in the absence of the inhibitor.
as §1, with “MCoEeTI (0-1950” for “McoTi-KVV (0-34”

bovine trypsin = molecular target: T1, bovine trypsin (Bos taurus, UniProt P00760); assay: Trypsin inhibition with substrate Boc-Leu-Gly-Arg-pNA (Example 4); type: biochemical; conditions: as barnase′ fusion proteins
T1 construct: purchased Serva
T1 sequence (P00760 24-246): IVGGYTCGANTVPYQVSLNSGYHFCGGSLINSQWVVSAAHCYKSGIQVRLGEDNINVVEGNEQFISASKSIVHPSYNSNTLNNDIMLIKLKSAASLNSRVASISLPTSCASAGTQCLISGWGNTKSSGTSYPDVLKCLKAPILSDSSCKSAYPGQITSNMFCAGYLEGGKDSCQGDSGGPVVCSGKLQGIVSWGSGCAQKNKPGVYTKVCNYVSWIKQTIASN
Method: The inhibitory activity of the protein variants was measured according to van Nostrand et al. (1990) and Sinha et al. (1991). The remaining activity of bovine trypsin (Serva) was determined after incubation with the respective inhibitor for 10 min at 37° C. by monitoring hydrolysis of the chromogenic substrate Boc-Leu-Gly-Arg-pNA (Bachem, solubilized in Me2SO) at 405 nm. Assays were performed in a final volume of 100 μl in 50 mM Tris-HCl, pH 7.5, 150 mM NaCl, 5 mM CaCl2 at 37° C. containing 5 nM of trypsin, […] and varying amounts of inhibitor (10^−10-10^−6 M). For calculation of Kiapp-values, vmax values were determined and the curve fitting tool of SigmaPlot (Jandel Scientific) was applied on the basis of the following formula, that describes the case of competitive tight binding inhibitors (Morrison, 1969):
[formula] vi=vmax value of inhibited reaction v0=vmax value of uninhibited reaction [Et]=total enzyme concentration (free and in complex) [It]=total inhibitor concentration (free and in complex) Kiapp=apparent dissociation constant of the enzyme-inhibitor complex. Results and Discussion Choice of Carrier Protein and Production Strategy

Trypsin [1] = molecular target: T2, Trypsin (Bos taurus, UniProt P00760); assay: Kiapp determination with trypsin (Example 3); type: biochemical, bovine
T2 sequence (P00760 24-246): T1 sequence (P00760 24-246)
Excerpt: Therefore, bovine pancreatic trypsin was standardised by active-site titration using p-Nitrophenyl p′-guanidinobenzoate (Chase & Shaw, 1970).

[2] = molecular target: Elastase (Pankreas proteases) (Sus scrofa, UniProt P00772); assay: biochemical
Trypsin [3] = molecular target: Trypsin (Sus scrofa, UniProt P00761); assay: biochemical
Elastase (Neutrophiles) = Elastase (Neutrophiles) (Homo sapiens, UniProt P08246); assay: biochemical
Faktor XA = Faktor XA (Homo sapiens, UniProt P00742); assay: biochemical
Tryptase β-II = Tryptase β-II (Homo sapiens, UniProt P20231); assay: biochemical
hK3 = hK3 (Homo sapiens, UniProt P07288); assay: biochemical
Plasmin = Plasmin (Homo sapiens, UniProt P00747); assay: biochemical
Thrombin = Thrombin (Homo sapiens, UniProt P00734); assay: biochemical
Cathepsin G = Cathepsin G (Homo sapiens, UniProt P08311); assay: biochemical
Tryptase β-Ia = Tryptase β-Ia (Homo sapiens, UniProt Q15661); assay: biochemical
pK1 = assay: Protease selectivity, Kiapp; type: biochemical; conditions: Human
tPA = tPA (Homo sapiens, UniProt P00750); assay: biochemical
Tryptase ST2 = Tryptase ST2 (Ovis aries, UniProt Q9XSM2); assay: biochemical
Chymotrypsin = assay: Protease selectivity, Kiapp; type: biochemical; conditions: Porcine
tetrameric tryptase = tetrameric tryptase (Homo sapiens, UniProt P20231); conditions: cited from earlier work

CC[C@H](C)[C@@H]1NC(=O)[C@H](CCCCN)NC(=O)[C@@H]2CCCN2C(=O)[C@@H](NC(=O)[C@@H](NC(=O)[C@H](CO)NC(=O)CN)C(C)C)CSSC[C@@H]2NC(=O)CNC(=O)[C@H](C)NC(=O)[C@H](CC(C)C)NC(=O)[C@@H]3CSSC[C@@H](C(=O)NCC(=O)N[C@@H](CO)C(=O)O)NC(=O)[C@H](Cc4ccccc4)NC(=O)CNC(=O)[C@H](CC(N)=O)NC(=O)[C@@H]4CCCN4C(=O)CNC(=O)[C@H](CSSC[C@H](NC(=O)[C@H](CCCCN)NC(=O)[C@H](CCCCN)NC(=O)[C@H](CC(C)C)NC1=O)C(=O)N[C@@H](CCCNC(=N)N)C(=O)N[C@@H](CCCNC(=N)N)C(=O)N[C@@H](CC(=O)O)C(=O)N[C@@H](CO)C(=O)N[C@@H](CC(=O)O)C(=O)N3)NC(=O)[C@H](C(C)C)NC2=O [MCoEeTI] (H-GSVCPKILKKCRRDSDCLAGCVCGPNGFCGS-OH; disulfide 4-21, 11-23, 17-29; N-terminus and C-terminus assumed)
Ki (β3-Tryptase): 200 nM
inhibition of bovine trypsin (in words) (bovine trypsin): strong inhibitory activity

SE-BMG-0: Barnase′-[…] (SEQ ID NO:3) (SSSMGVCPKILKKCRRDSDCLAGCVCGPNGFCGS; not fully specified)
Ki (Trypsin [1]): 0.2 nM
Ki (β3-Tryptase; read-out: Kiapp β3-Tryptase): 100 nM

MCoEeTI-KKV-1: Ba′-[…] (SEQ ID NO:5) (SSSMGKKVGVCPKILKKCRRDSDCLAGCVCGPNGFCGS; not fully specified)
Ki (Trypsin [1]): 0.2 nM
Ki (β3-Tryptase; read-out: Kiapp β3-Tryptase): 20 nM

CC[C@H](C)[C@@H]1NC(=O)[C@H](CCCCN)NC(=O)[C@@H]2CCCN2C(=O)[C@@H](NC(=O)[C@@H](NC(=O)CN)C(C)C)CSSC[C@@H]2NC(=O)CNC(=O)[C@H](C)NC(=O)[C@H](CC(C)C)NC(=O)[C@@H]3CSSC[C@@H](C(=O)NCC(=O)N[C@@H](CO)C(=O)O)NC(=O)[C@H](Cc4ccccc4)NC(=O)CNC(=O)[C@H](CC(N)=O)NC(=O)[C@@H]4CCCN4C(=O)CNC(=O)[C@H](CSSC[C@H](NC(=O)[C@H](CCCCN)NC(=O)[C@H](CCCCN)NC(=O)[C@H](CC(C)C)NC1=O)C(=O)N[C@@H](CCCNC(=N)N)C(=O)N[C@@H](CCCNC(=N)N)C(=O)N[C@@H](CC(=O)O)C(=O)N[C@@H](CO)C(=O)N[C@@H](CC(=O)O)C(=O)N3)NC(=O)[C@H](C(C)C)NC2=O [SE-MG-0] (H-GVCPKILKKCRRDSDCLAGCVCGPNGFCGS-OH; disulfide 3-20, 10-22, 16-28; N-terminus and C-terminus assumed)
Ki [2]: > 1000 nM
Ki (Trypsin [3]): 0.3 nM
Ki (Elastase (Neutrophiles)): > 1000 nM
Ki (Faktor XA): > 1000 nM
Ki (β3-Tryptase): 100 nM
Ki (Tryptase β-II): 70 nM
Ki (hK3): > 1000 nM
Ki (Plasmin): ~600 nM
Ki (Thrombin): > 1000 nM
Ki (Cathepsin G): > 1000 nM
Ki (Tryptase β-Ia): 70 nM
Ki (pK1): > 1000 nM
Ki (tPA): > 1000 nM
Ki (Tryptase ST2): 4000 nM
Ki (Chymotrypsin): > 1000 nM

LDTI: leech derived tryptase Inhibitor, a 46 residue Kazal-type protein (KKVCACPKILKPVCGSDGRTYANSCIARCNGVSIKSEGSCPTGILN; UniProt P80424 1-46, looked up)
Ki (tetrameric tryptase; 2 of the 4 catalytic sites of the tetrameric tryptase): 1.4 nM
Ki (tetrameric tryptase; one of the remaining two sites): 560 nM
Ki (tetrameric tryptase; the other of the remaining two sites): 10000 nM

MCoEeTI-QRT-7: Barnase′-[…] (SEQ ID NO:38) (SSSMGVCPRNRQRCRRDSDCLAGCVCTNNKFCGS; not fully specified)
Ki (Trypsin [1]): 1 nM

MCoEeTI-LKA-7: Bar′-[…] (SEQ ID NO:40) (SSSMGVCPKILKACRRDSDCLAGCVCGPNGFCGS; not fully specified)
Ki (Trypsin [1]): 0.2 nM

EETI-II [reference compound]
inhibition of bovine trypsin (in words) (bovine trypsin): strong inhibitory activity

MCoEeTI-T-1: Barnase′-[…] (SEQ ID NO:6) (SSSMGVCPKILKKCRRDSDCLAGCVCTNNKFCGS; not fully specified)
Ki (Trypsin [1]): 0.1 nM
Ki (β3-Tryptase; read-out: Kiapp β3-Tryptase): 150 nM

MCoEeTI-ARD-2: Barnase′-[…] (SEQ ID NO:39) (SSSMGVCPKILKACARDSDCLAGCVCGPNGFCGS; not fully specified)
Ki (Trypsin [1]): 0.2 nM

MCoEeTI-3R-3: Barnase′-[…] (SEQ ID NO:4) (SSSMGVCPRILRRCRRDSDCLAGCVCGPNGFCGS; not fully specified)
Ki (Trypsin [1]): 0.2 nM
Ki (β3-Tryptase; read-out: Kiapp β3-Tryptase): 30 nM

Source: patent US8278262B2, “Use of microproteins as tryptase inhibitors” (BioNTech AG, priority 2004, dated 2012)
